From US8232448B2, “Transgenic mouse with a homozygous mutation in the CMAH gene” (The Regents of the University of California, priority 2005, dated 2012)

Experiments:
Caco-2 cells [1] = experiment: Neu5Gc feeding experiment, Neu5Gc in subcellular fractions by DMB-HPLC; format: cell-based, human; details: fed 3 mM for 3 days
Description: (§1) Neu5Gc and ManNGc Feeding Experiment—Neu5Ac, Neu5Gc or ManNGc were dried, dissolved in the appropriate media supplemented with heat-inactivated human serum, sterilized using a Spin-X® (Corning Inc., Corning, N.Y.) and then added to the cells. The pH of the media containing Sia was adjusted to neutrality using sterilized 1M NaOH before starting the feeding experiment. Cells were cultured in the presence of up to 3 mM free Sia or ManNGc for 1 or 3 days at 37° C. At the end of the feeding, cells were washed with cold PBS, harvested either by scraping or with 2 mM EDTA for fibroblasts, and washed again with cold PBS prior to fractionation.
Fractionation of the Labeled Cells—Washed cell pellets were sonicated into 500 μL of 20 mM sodium phosphate buffer or 20 mM Tris-HCl, pH 7.5, using 4×15 second pulses of a sonicator cell disrupter, model Some Dismembrator (Fisher Scientific, Hampton, N.J.) at a probe setting of 3. The sonicate was centrifuged at 75×g for 15 min., and the pellet Obtained consisted primarily of nuclei and unbroken cells. The pellet contained <5% of the incorporated sialic acid as determined using a radioactive tracer (data not shown.) The supernatant was therefore considered as the “total homogenate” fraction. A portion (20%) of the “total homogenate” fraction was taken for protein quantification and Sia analysis by DMB derivatization and HPLC analysis (as discussed below.) The remainder was centrifuged at 100,000×g for 1 h. The resulting pellet, called the “membrane” fraction, was then resuspended by sonication (15 sec.) in 200 μl of sodium acetate buffer, pH 5.5. […] All the Sias in these fractions were released with mild acid hydrolysis if necessary and then analyzed by HPLC after DMB derivatization. Protein quantification was performed on the total homogenate, membrane and soluble protein fractions by using the BCA protein assay kit from Pierce (Rockford, Ill.) In some experiments, the resulting data obtained for the Sia bound to the membrane fraction and to the soluble proteins were pooled and presented here as a High Molecular Weight (HMW) fraction. […]

[2] = system: normal human skin fibroblasts; experiment: Neu5Gc/ManNGc feeding experiment, normal (WT) fibroblasts, DMB-HPLC; format: cell-based
Description: as §1
Fractionation of the Labeled Cells—Washed cell pellets were sonicated into 500 μL of 20 mM sodium phosphate buffer or 20 mM Tris-HCl, pH 7.5, using 4×15 second pulses of a sonicator cell disrupter, model Some Dismembrator (Fisher Scientific, Hampton, N.J.) at a probe setting of 3. The sonicate was centrifuged at 75×g for 15 min., and the pellet Obtained consisted primarily of nuclei and unbroken cells. The pellet contained <5% of the incorporated sialic acid as determined using a radioactive tracer (data not shown.) The supernatant was therefore considered as the “total homogenate” fraction. A portion (20%) of the “total homogenate” fraction was taken for protein quantification and Sia analysis by DMB derivatization and HPLC analysis (as discussed below.) The remainder was centrifuged at 100,000×g for 1 h. The resulting pellet, called the “membrane” fraction, was then resuspended by sonication (15 sec.) in 200 μl of sodium acetate buffer, pH 5.5. The 100,000×g supernatant, called the “soluble” fraction was adjusted to 90% ethanol using absolute ice-cold ethanol, and placed overnight at −20° C. The flocculant precipitate, which represents the “soluble protein” fraction, was washed 3 times with 90%® ice-cold ethanol and then resuspended in 200 μl of water. The supernatant fluid representing the cytosolic low molecular weight (LMW) fraction was dried and brought up in 100 μL with water prior to Sia analysis. All the Sias in these fractions were released with mild acid hydrolysis if necessary and then analyzed by HPLC after DMB derivatization. Protein quantification was performed on the total homogenate, membrane and soluble protein fractions by using the BCA protein assay kit from Pierce (Rockford, Ill.) In some experiments, the resulting data obtained for the Sia bound to the membrane fraction and to the soluble proteins were pooled and presented here as a High Molecular Weight (HMW) fraction.
Sialic Acid Release, DMB Derivatization and HPLC Analysis—The bound Sias from the total homogenate, membrane and soluble protein fractions were released using 2M acetic acid hydrolysis, 3 h. at 80° C. The released Sias, or free Sias, contained in the soluble LMW fraction were passed through a Microcon® YM-10 filter (Millipore, Bedford, Mass.) prior to DMB derivatization, which was done according to Hara et al., 1989. DMB-Sia derivatives from the different fractions were then analyzed by HPLC using a C18 column (Microsorb MV-TM 100 A, Varian, Palo Alto, Calif.) Isocratic elution was achieved using 7% methanol, 8% acetonitrile in water during 50 min. at 0.9 ml/min flow. The eluant was monitored by fluorescence.
Quantification of Sias—For all HPLC chromatograms, the quantification of Sias was done by comparison with known quantities of DMB derivatized Neu5Gc and Neu5Ac used as standards and then reported in terms of pmoles of Sia. […]

chimpanzee lymphoblasts = experiment: Neu5Gc/Neu5Ac feeding experiment, chimpanzee lymphoblasts; format: cell-based; details: chimpanzee lymphoblasts fed 3 mM for 3 days
[3] = system: human LB EBV-transformed lymphoblasts; experiment: Neu5Gc/Neu5Ac feeding experiment, human lymphoblasts; format: cell-based
Description: Cell Culture—Caco-2 cells were propagated in alpha-MEM containing GLUTAMAX™ (Invitrogen, San Diego, Calif.) and a mixture of ribonucleosides and deoxyribonucleosides (Gibco/Invitrogen, San Diego, Calif.) supplemented with 20% FCS. All the fibroblast cell lines and CHO-K1 cells were cultured in the same media supplemented respectively with 15% non-heat inactivated FCS or 10% heat inactivated FCS. Chimpanzee Fred and human LB EBV-transformed lymphoblasts were cultured in RPMI-1640 (Gibco/Invitrogen, San Diego, Calif.) supplemented with 10% heat inactivated FCS or 15% human serum. All of the cultures were maintained at 37° C., 5% CO2 atmosphere. In order to deplete any remaining Neu5Gc from FCS, the cells were split and cultured prior to Neu5Gc feeding experiments for at least 4 days in alpha-MEM supplemented with an adequate percentage of heat-inactivated premium human serum instead of FCS. The cells were then maintained under the same conditions during the whole feeding experiment. The human serum was heat inactivated at 56° C. for 30 min. before use.
as §1, with “At the end of the feeding, cells were washed with cold PBS, harvested either by scraping or with 2 mM EDTA for fibroblasts, and washed again with cold PBS prior to fractionation.” left out
Fractionation of the Labeled Cells—Washed cell pellets were sonicated into 500 μL of 20 mM sodium phosphate buffer or 20 mM Tris-HCl, pH 7.5, using 4×15 second pulses of a sonicator cell disrupter, model Some Dismembrator (Fisher Scientific, Hampton, N.J.) at a probe setting of 3. […] The pellet contained <5% of the incorporated sialic acid as determined using a radioactive tracer (data not shown.) The supernatant was therefore considered as the “total homogenate” fraction. A portion (20%) of the “total homogenate” fraction was taken for protein quantification and Sia analysis by DMB derivatization and HPLC analysis (as discussed below.) The remainder was centrifuged at 100,000×g for 1 h. […] All the Sias in these fractions were released with mild acid hydrolysis if necessary and then analyzed by HPLC after DMB derivatization. Protein quantification was performed on the total homogenate, membrane and soluble protein fractions by using the BCA protein assay kit from Pierce (Rockford, Ill.) In some experiments, the resulting data obtained for the Sia bound to the membrane fraction and to the soluble proteins were pooled and presented here as a High Molecular Weight (HMW) fraction. […]

[4] = system: Human neuroblastoma cells; experiment: Neu5Gc feeding experiment, neuroblastoma cells; format: cell-based; details: fed 3 mM for 3 days
Description: as §1
Fractionation of the Labeled Cells—Washed cell pellets were sonicated into 500 μL of 20 mM sodium phosphate buffer or 20 mM Tris-HCl, pH 7.5, using 4×15 second pulses of a sonicator cell disrupter, model Some Dismembrator (Fisher Scientific, Hampton, N.J.) at a probe setting of 3. […] The pellet contained <5% of the incorporated sialic acid as determined using a radioactive tracer (data not shown.) The supernatant was therefore considered as the “total homogenate” fraction. A portion (20%) of the “total homogenate” fraction was taken for protein quantification and Sia analysis by DMB derivatization and HPLC analysis (as discussed below.) The remainder was centrifuged at 100,000×g for 1 h. […]

Caco-2 cells [5] = experiment: Competition of free Neu5Ac with free Neu5Gc for incorporation; format: cell-based, human; details: Caco-2, 3 mM Neu5Gc 3 days, in the presence of 15 mM Neu5Ac
Description: as §1, with “Cells were cultured in the presence of up to 3 mM free Sia or ManNGc for 1 or 3 days at 37° C.” left out
Fractionation of the Labeled Cells—Washed cell pellets were sonicated into 500 μL of 20 mM sodium phosphate buffer or 20 mM Tris-HCl, pH 7.5, using 4×15 second pulses of a sonicator cell disrupter, model Some Dismembrator (Fisher Scientific, Hampton, N.J.) at a probe setting of 3. […] The pellet contained <5% of the incorporated sialic acid as determined using a radioactive tracer (data not shown.) The supernatant was therefore considered as the “total homogenate” fraction. A portion (20%) of the “total homogenate” fraction was taken for protein quantification and Sia analysis by DMB derivatization and HPLC analysis (as discussed below.) The remainder was centrifuged at 100,000×g for 1 h. […] All the Sias in these fractions were released with mild acid hydrolysis if necessary and then analyzed by HPLC after DMB derivatization. […]

Caco-2 cells [6] = experiment: Endocytosis inhibition experiments (Neu5Gc incorporation); format: cell-based, human; details: Caco-2, 2 h pre-treatment with drug, then 3 mM Neu5Gc
Description: The sonicate was centrifuged at 75×g for 15 min., and the pellet Obtained consisted primarily of nuclei and unbroken cells. […] A portion (20%) of the “total homogenate” fraction was taken for protein quantification and Sia analysis by DMB derivatization and HPLC analysis (as discussed below.) The remainder was centrifuged at 100,000×g for 1 h. The resulting pellet, called the “membrane” fraction, was then resuspended by sonication (15 sec.) in 200 μl of sodium acetate buffer, pH 5.5. The 100,000×g supernatant, called the “soluble” fraction was adjusted to 90% ethanol using absolute ice-cold ethanol, and placed overnight at −20° C. The flocculant precipitate, which represents the “soluble protein” fraction, was washed 3 times with 90%® ice-cold ethanol and then resuspended in 200 μl of water. The supernatant fluid representing the cytosolic low molecular weight (LMW) fraction was dried and brought up in 100 μL with water prior to Sia analysis. All the Sias in these fractions were released with mild acid hydrolysis if necessary and then analyzed by HPLC after DMB derivatization. Protein quantification was performed on the total homogenate, membrane and soluble protein fractions by using the BCA protein assay kit from Pierce (Rockford, Ill.) In some experiments, the resulting data obtained for the Sia bound to the membrane fraction and to the soluble proteins were pooled and presented here as a High Molecular Weight (HMW) fraction. Sialic Acid Release, DMB Derivatization and HPLC Analysis—The bound Sias from the total homogenate, membrane and soluble protein fractions were released using 2M acetic acid hydrolysis, 3 h. at 80° C. The released Sias, or free Sias, contained in the soluble LMW fraction were passed through a Microcon® YM-10 filter (Millipore, Bedford, Mass.) prior to DMB derivatization, which was done according to Hara et al., 1989. […] The eluant was monitored by fluorescence. Quantification of Sias—For all HPLC chromatograms, the quantification of Sias was done by comparison with known quantities of DMB derivatized Neu5Gc and Neu5Ac used as standards and then reported in terms of pmoles of Sia. For total homogenate, membrane and cytosolic protein fractions, this number was expressed per mg of protein. Due to minor sample-to-sample variations in amounts and recoveries, the data in the Figures is presented as percent of Neu5Gc over total Sias, rather than as absolute amounts. Endocytosis Inhibition Experiments—Caco-2 or normal fibroblast cells were split and cultured in alpha-MEM media supplemented respectively with 20% or 15% human serum for 4 days before starting the endocytosis drug inhibition experiments in order to deplete any Neu5Gc derived from FCS. Cells were then pre-treated for 2 h. with the specific inhibitors under the same culture conditions. Fresh media containing the same amount of inhibitor and 3 mM of Neu5Gc was then added to the cells, which were incubated for 16 h or 3 days and finally harvested and fractionated as described above.

[7] = human normal fibroblasts after 3 mM Neu5Gc feeding, 3 days
[8] = human lymphoblasts fed 3 mM for 3 days

Structure (SMILES): O=C(CO)N[C@H]1[C@H]([C@H](O)[C@H](O)CO)OC(O)(C(=O)O)C[C@@H]1O (stereo partly shown) [Neu5Gc, N-glycolylneuraminic acid]
- Neu5Gc (percent of total Sia), cytosolic low molecular weight (LMW) fraction (Caco-2 cells [1]): 70%
- Neu5Gc (percent of total Sia), high molecular weight fraction (HMW) (Caco-2 cells [1]): 46%
- Neu5Gc (percent of total Sia), total homogenate (TH) (Caco-2 cells [1]): 58%
- Neu5Gc (percent of total Sia), HMW fraction [2, 7]: 39%
- Neu5Gc (percent of total Sia), TH fraction [2, 7]: 28%
- Neu5Gc (percent of total Sia), cytosolic LMW fraction [2, 7]: 41%
- percent of Neu5Gc in membrane-bound glycoconjugates ([2]; normal wild-type (WT) fibroblasts, fed 3 mM for 3 days): 37%
- Neu5Gc (percent of total Sia), TH fraction (chimpanzee lymphoblasts; non-fed baseline 57%): 70%
- Neu5Gc (percent of total Sia), HMW fraction (chimpanzee lymphoblasts; non-fed baseline 66%): 72%
- Neu5Gc (percent of total Sia), LMW fraction (chimpanzee lymphoblasts; non-fed baseline 70%): 84%
- Neu5Gc (percent of total Sia), HMW fraction [3, 8]: 51%
- Neu5Gc (percent of total Sia), LMW cytosolic fraction [3, 8]: 80%
- Neu5Gc (percent of total Sia), TH fraction [3, 8]: 67%
- Neu5Gc incorporation efficiency [4]: efficiency comparable to the Caco-2 cells

Structure (SMILES): CC(=O)N[C@H]1[C@H]([C@H](O)[C@H](O)CO)OC(O)(C(=O)O)C[C@@H]1O (stereo partly shown) [Neu5Ac, N-acetylneuraminic acid]
- Neu5Gc (percent of total Sia) in the membrane-bound fraction (Caco-2 cells [5]): almost to zero
- Neu5Gc detected in the cells ([3]; human lymphoblasts fed 3 mM Neu5Ac for 3 days): almost no detectable Neu5Gc

Structure (SMILES): CN(C)CCCN1c2ccccc2Sc2ccc(Cl)cc21 [chlorpromazine]
- Neu5Gc incorporation into membrane-bound glycoconjugates in the presence of inhibitor (Caco-2 cells [6]): 50%

Structure (SMILES): C[C@@H]1[C@H](O)[C@@H](C)/C=C/C=C/CC/C=C/C=C/C=C/C=C/C(O[C@H]2O[C@H](C)[C@@H](O)[C@H](N)[C@@H]2O)CC2O[C@](O)(CC(O)C(O)CCC(O)CC(O)CC(O)CC(=O)O[C@H]1C)CC(O)C2C(=O)O (stereo partly shown) [nystatin]
- Neu5Gc incorporation into membrane-bound glycoconjugates in the presence of inhibitor (Caco-2 cells [6]): 44%
- incorporation of Neu5Gc in the TH fraction in the presence of inhibitor (Caco-2 cells [6]): ~65%
